These results are taken from patent US5663168A, “Use of compositions for combating tumour diseases” (CIBA-Geigy Corporation, priority 1993, dated 1997).

The subject of this assay is human mammary carcinoma of the MCF-7 line. The experiment in a line: Inhibition of the growth of a human mammary carcinoma in the mouse model. It is filed as in vivo, Balb/c nu/nu-mice. How it is done:
2×6 female Balb/c nu/nu-mice (Bomholtgard, oestrogen-stimulated with 5 mg of oestradiol in a perforated plastics tube "Silastic®" (Dow Chemical, Michigan, USA)) are implanted with tumours by subcutaneous transplantation of fragments of human mammary carcinoma (about 25 mg) of the MCF-7 line (American Type Culture Collection, Maryland, USA; see H. D. Soule et al., J. Nat. Cancer Inst. 51, 1409-1416 (1973)). After the tumours have grown to a volume of about 30 to 100 mm^3 (after 13 days), 6 mice (test group) are each given twice dally over a period of 25 days a dose of 50 mg/kg of Boc-Phe[C]Phe-(L)-Val-(L)-Phe-morpholin-4-ylamide (dissolved in a concentration of 2 mg/ml in a 5% solution of dimethyl sulfoxide and 20% hydroxypropyl-β-cyclodextrin in water, prepared by dissolution of the test compound in dimethyl sulfoxide and dilution with aqueous hydroxypropyl-β-cyclodextrin solution). […] After 25 days (50 administrations) the following tumour volumes (mean value) are determined:
The tumour growth is determined by measuring the diameter along the longitudinal axis of the tumour (L) and perpendicular thereto (D) (in a living animal by means of a calliper gauge). The tumour volumes are calculated in accordance with the formula π×L×D^2 /6 (Evans, B. D., et al., Brit. J. Cancer 45, 466-468 (1982)).

As to “Boc-Phe[C]Phe-(L)-Val-(L)-Phe-morpholin-4-ylamide”, the “tumour growth in comparison with the control group” value (MCF-7 tumours in female Balb/c nu/nu-mice, 50 mg/kg orally twice daily for 25 days) is “marked reduction in tumour growth”. The “tumour volume (mean value)” value (subcutaneous MCF-7 tumour fragments in oestrogen-stimulated female Balb/c nu/nu-mice, 50 mg/kg orally twice daily, after 25 days (50 administrations), placebo control 0.96 cm^3) came to 0.30 cm^3.
